# Ends that are not written are not given here.
# Legend:
# [1] = system: recombinant human TACE (rhTACE); assay: TACE-mediated cleavage of rhTNFR2:Fc model substrate (SDS-PAGE, silver staining, Western blot); assay type: biochemical; settings: for inhibition of TACE-mediated cleavage of TNFR2:Fc: 80 μM peptide, silver staining
# From the text: A model assay system was developed to assess the ability of N-TACE to inhibit TACE enzymatic activity. Recombinant human TACE (rhTACE), as well as the recombinant human TNFR1:Fc (rhTNFR1:Fc) and TNFR2:Fc (rhTNFR2:Fc) fusion proteins were purchased from R & D Systems (Minneapolis, Minn.). Both TNFR1:Fc and TNFR2:Fc are recombinant human chimeric proteins that encode the extracellular receptor domains, fused to a carboxy-terminal 6X-histidine-tagged Fc region of human IgG1 via a linker peptide (IEGRMD)(SEQ ID NO:1). Recombinant human TACE corresponds to the mature form following removal of the prodomain and has an apparent molecular weight of 70 kDa. N-TACE(18-54), which lacked the signal peptide, was synthesized by Sigma-Genosys (The Woodlands, Tex.). N-TACE truncation mutants were also synthesized; an amino-terminal mutant N-TACE(18-29) corresponded to N-TACE amino acids 18-29, a mid-domain mutant N-TACE(30-42) corresponded to N-TACE amino acids 30-42, a carboxy-terminal mutant N-TACE(43-54) corresponded to amino acids 43-54, and an extended mid-domain mutant N-TACE(30-48) corresponded to amino acids 30 to 48.
# Chou Fasman analysis was performed using MacVector (Accelrys, Burlington, Mass.). Assays (50 μl) were performed in 50 mM Tris, 25 mM NaCl, pH 8.0 at 30° C. for 30 min. Samples were analyzed by SDS-PAGE using 4%-12% Bis-Tris Nupage gels (Invitrogen, Carlsbad, Calif.) and visualized with the SilverQuest Silver Staining Kit (Invitrogen, Carlsbad, Calif.). For Western blot analysis, samples were separated via SDS-PAGE, electroblotted onto nitrocellulose membranes, and incubated overnight (4° C.) with 200 ng/ml of a murine IgG1 monoclonal antibody directed against the histidine tag (Tetra-His, Qiagen, Valenica, Calif.). The antibody detected the carboxy-terminus of the recombinant human TNFR2:Fc fusion protein. A rabbit polyclonal antibody was also generated against N-TACE(18-54) (Sigma-Genosys, The Woodlands, Tex.) and was utilized for Western blotting at a 1:1000 dilution. Detection was by chemiluminescence using horseradish peroxidase-conjugated secondary antibodies.
# [2] = system: TNFR2 shedding from U937 cells; assay: TNFR2 shedding from U937 cells (sandwich ELISA of soluble TNFR2 in supernatants); assay type: cell-based; settings: 40 μM, 24 hours
# Protocol: (§1) The ability of N-TACE to inhibit TNFR2 shedding was tested in a cell-based system. U937 cells were obtained from ATCC (Manassas, Va.) and maintained in RPMI-1640 medium with 10% fetal bovine serum. For experiments, U937 cells were plated into 6 well plates at a density of 2×10^6 cells/ml. PMA was purchased from Sigma (St. Louis, Mo.). Release of TNFR2 into […] cell culture supernatants over a 24-hour period was assayed utilizing a sandwich ELISA with a sensitivity of 7.8 pg/ml (R & D Systems). Cellular apoptosis and necrosis were measured using the TACS Annexin V-FITC Apoptosis Detection Kit (R & D Systems, Minneapolis, Minn.) and a XL-MCL Flow Cytometer (Becman-Coulter, Miami, Fla.). Statistical analysis was performed by a paired Student's t test with a Bonferroni correction for multiple comparisons and by single factor ANOVA. Differences were considered significant at a P value <0.05.
# (§2) The U937 monocytic cells were treated for 24 hours with either N-TACE(18-54) (0.04 to 40 μM), or a peptide corresponding to N-TACE amino acids 18-29 (40 μM). […] In contrast, N-TACE(18-29) had no effect on TNFR2 shedding as compared to cells treated with media alone (186.5±1.8 vs. 184.6±2.2, n=6, P=NS).
# [3] = system: U937 cells; assay: Cellular apoptosis and necrosis (Annexin V binding and propidium iodide uptake, flow cytometry); assay type: cell-based
# Protocol: as §1, §2
# [4] = 0.5 μM rhTACE, 0.95 μM TNFR2:Fc, 30 min
Compound,"inhibition of TACE-mediated cleavage of TNFR2:Fc [1, 4]",also measured
"CC(C)C[C@H](CC(=O)NO)C(=O)N[C@H](C(=O)N[C@@H](C)C(=O)NCCN)C(C)(C)C [TAPI-2, reference compound]",,"inhibition of TACE-mediated TNFR2 cleavage ([1]; 25 μM, 0.5 μM rhTACE, 0.95 μM TNFR2:Fc, 30 min): completely inhibited"
N-TACE(18-29): amino-terminal truncation mutant corresponding to N-TACE amino acids 18-29 (PRPPDDPGFGPH),none of the N-TACE truncation mutants (80 μM) inhibited,effect on TNFR2 shedding ([2]; compared to media alone): no effect
N-TACE(30-42): mid-domain truncation mutant corresponding to N-TACE amino acids 30-42 (QRLEKLDSLLSDY),none of the N-TACE truncation mutants (80 μM) inhibited,
"N-TACE(30-48): extended mid-domain mutant, 19-amino acid leucine-rich peptide, amino acids 30 to 48; QRLEKLDSLLSDYDILSLS (listed as Homo sapiens)",inhibited,inhibition of TNFR2 shedding ([2]; compared to cells treated with media alone): about 16%
N-TACE(43-54): carboxy-terminal truncation mutant corresponding to amino acids 43-54 (DILSLSNIQQHS),none of the N-TACE truncation mutants (80 μM) inhibited,
"N-TACE: 54 amino acid protein: first 54 amino acids of TACE, signal peptide plus amino-terminus of prodomain, SEQ ID NO:3 (MRQSLLFLTSVVPFVLAPRPPDDPGFGPHQRLEKLDSLLSDYDILSLSNIQQHS; listed as Homo sapiens)",,inhibition of TACE-mediated cleavage of TNFR2:Fc (summary statement) ([1]; concentration not given): shown to inhibit
PRPPDDPGFGPHQRLEKLDSLLSDYDILSLSNIQQHS [N-TACE(18-54)],,apoptosis or necrosis as cause of decreased TNFR2 shedding [3]: not a consequence of either apoptosis or necrosis
"vasoactive intestinal peptide (HSDAVFTDNYTRLRKQMAVKKYLNSILN) [VIP, irrelevant peptide purchased from Bachem, specificity control, reference compound]",neither α-defensin or VIP inhibited,

# — US7655752B2, “TNF-α converting enzyme inhibitory agents and method of using same” (The United States of America as represented by the …, priority 2003, dated 2010)
